Measurements as given in PMC11855827, “High-Throughput Screening of Five Compound Libraries for Anthelmintic Activity and Toxicity Leads to the Discovery of Two Flavonoid Compounds” (International Journal of Molecular Sciences, 2025).

Tested on: C. elegans
Conditions: Table S2, C. elegans SS assay, 110 μM, averages of 4 data points

Compound	Percentage of motility inhibition 0 h [%]	Percentage of motility inhibition 24 h [%]
C[C@H]1O[C@H](OC2[C@@H](O)[C@@H](O)C(O)[C@H](O)[C@H]2O)[C@@H](N)C[C@@H]1N=C(N)C(=O)O.Cl.O (some centres unmarked) [Kasugamycin (hydrochloride hydrate)]	12	0
CC1(C)CCC[C@]2(C)[C@@H]1CC[C@@]13C[C@H](CC[C@H]12)[C@@](O)(CO)C3 [Kauran-16,17-diol]	0	22
C[C@@H]1CC[C@@]2(NC1)O[C@H]1C[C@H]3[C@@H]4CC=C5C[C@@H](O[C@@H]6O[C@H](CO)[C@@H](O[C@@H]7O[C@@H](C)[C@H](O)[C@@H](O)[C@H]7O)[C@H](O)[C@H]6O)CC[C@]5(C)[C@H]4CC[C@]3(C)[C@H]1[C@@H]2C [Khasianine]	19	10
OC[C@H]1O[C@@H](Oc2cc3c(O)cc(O)cc3[o+]c2-c2ccc(O)c(O)c2)[C@H](O)[C@@H](O)[C@@H]1O.[Cl-] [Kuromanin (chloride)]	34	5
C=C(C)[C@H](CC=C(C)C)Cc1c(O)cc(OC)c2c1O[C@H](c1ccc(O)cc1O)[C@@H](O)C2=O [Kushenol I]	0	8
CC(C)=CCc1c(O)ccc(C(=O)[C@@H]2[C@@H](c3c(O)cc(O)c4c(=O)c(CC=C(C)C)c(-c5ccc(O)cc5O)oc34)C=C(C)C[C@H]2c2ccc(O)cc2O)c1O [Kuwanon H]	11	23
O=C(O)c1cc(=O)c2ccccc2[nH]1 [Kynurenic acid]	17	0
N=C(N)NCCC[C@H](N)C(=O)O.N[C@@H](CCC(=O)O)C(=O)O [L-Arginine (L-glutamate)]	22	0
Cl.N=C(N)NCCC[C@H](N)C(=O)O [L-Arginine (hydrochloride)]	20	17
O=C1O[C@H]([C@@H](O)CO)C([O-])=C1O.[Na+] [L-Ascorbic acid (sodium salt)]	6	3
NC(=O)C[C@H](N)C(=O)O [L-Asparagine]	27	25
C[N+](C)(C)C[C@H](O)CC(=O)[O-] [L-Carnitine]	7	1
N[C@@H](CCC(=O)O)C(=O)[O-].[Na+] [L-Glutamic acid (monosodium salt)]	1	0
CN1[C@@H]2CC[C@H]1CC(OC(=O)[C@H](CO)c1ccccc1)C2.CN1[C@@H]2CC[C@H]1CC(OC(=O)[C@H](CO)c1ccccc1)C2.O=S(=O)(O)O (stereo partly drawn) [L-Hyoscyamine (sulfate)]	1	6
CN1[C@@H]2CC[C@H]1C[C@@H](OC(=O)[C@H](CO)c1ccccc1)C2 [L-Hyoscyamine]	55	28
NCCCC[C@H](N)C(=O)O.O [L-Lysine hydrate]	8	2
Cl.NCCCC[C@H](N)C(=O)O [L-Lysine hydrochloride]	19	0
NCCC[C@H](N)C(=O)O [L-Ornithine]	2	4
C=C(C)[C@@H]1CC=C(C=O)CC1 [L-Perillaldehyde]	22	25
C=C1C(=O)O[C@@H]2[C@H]3C(CO)=CC(=O)C3=C(C)C[C@H](OC(=O)Cc3ccc(O)cc3)[C@@H]12 [Lactupicrin]	7	25
COc1cc2c(cc1O)-c1c(OC)c(O)cc3c1[C@H](C2)NCC3 [Laetanine]	0	0
CC[C@@H](C(=O)[C@@H](C)[C@@H](O)[C@H](C)CCc1ccc(C)c(O)c1C(=O)[O-])[C@H]1O[C@](CC)([C@H]2CC[C@](O)(CC)[C@H](C)O2)C[C@@H]1C.[Na+] [Lasalocid (sodium)]	15	4
C=C1CC[C@H]2[C@@H](/C=C(\C)C(=O)[C@@]3(O)C[C@H](C)[C@H](O)[C@@H]3[C@@H]1O)C2(C)C [Lathyrol]	1	3

Compound	Percentage of motility inhibition 0 h [%]	Percentage of motility inhibition 24 h [%]
CCCCCCCCCCCC(=O)O [Lauric acid]	58	61
COc1cc2c(cc1O)C[C@@H]1NCCc3cc(O)c(OC)c-2c31.Cl [Laurolitsine (hydrochloride)]	36	5
COC(=O)N[C@H](C(=O)N1CC2(CC2)C[C@H]1c1ncc(-c2ccc3c(c2)C(F)(F)c2cc(-c4ccc5nc([C@@H]6[C@H]7CC[C@H](C7)N6C(=O)[C@@H](NC(=O)OC)C(C)C)[nH]c5c4)ccc2-3)[nH]1)C(C)C.O=C(O)C(O)C(O)C(=O)O [Ledipasvir (D‐tartrate)]	34	13
COC(=O)N[C@H](C(=O)N1CC2(CC2)C[C@H]1c1nc(-c2ccc3c(c2)C(F)(F)c2cc(-c4ccc5[nH]c([C@@H]6[C@H]7CC[C@H](C7)N6C(=O)[C@@H](NC(=O)OC)C(C)C)nc5c4)ccc2-3)c[nH]1)C(C)C [Ledipasvir (acetone)]	14	4
CC(C)c1ccc2c(c1)CC[C@H]1[C@](C)(CN)CCC[C@]21C.Cl [Leelamine (hydrochloride)]	22	57
COc1cc(C(=O)OCCCCN=C(N)N)cc(OC)c1O.Cl [Leonurine (hydrochloride)]	0	0
COc1cccc(C[n+]2cn(Cc3ccccc3)c(C)c2C)c1.[Cl-] [Lepidiline C]	0	0
O=c1c(O[C@@H]2O[C@H](CO)[C@@H](O)[C@H](O)[C@H]2O[C@@H]2OC[C@@H](O)[C@H](O)[C@H]2O)c(-c2ccc(O)cc2)oc2cc(O)cc(O)c12 [Leucoside]	9	8
CC(C)=CCC[C@](C)(O)[C@@H]1CC=C(C)CC1 [Levomenol]	37	50
COc1c(/C=C/C(=O)c2ccc(O)cc2)ccc(O)c1CC=C(C)C [Licochal cone C]	0	8
CC(C)=CCc1c(O)ccc(-c2coc3cc(O)cc(O)c3c2=O)c1O [Licoisoflavone A]	0	10
CC1(C)[C@@H](O[C@@H]2O[C@H](C(=O)O)[C@@H](O)[C@H](O)[C@H]2O[C@@H]2O[C@H](C(=O)O)[C@@H](O)[C@H](O)[C@H]2O)CC[C@]2(C)[C@H]3C(=O)C=C4[C@@H]5C[C@](C)(C(=O)O)CC[C@]5(C)CC[C@@]4(C)[C@]3(C)CC[C@@H]12 [Licorice-saponin H2]	0	14
C[C@]1(C(=O)O)CC[C@]2(C)CC[C@]3(C)C(=CC(=O)[C@@H]4[C@@]5(C)CC[C@H](O[C@@H]6O[C@H](C(=O)O)[C@@H](O)[C@H](O)[C@H]6O[C@@H]6O[C@H](C(=O)O)[C@@H](O)[C@H](O)[C@H]6O)[C@](C)(CO)[C@@H]5CC[C@]43C)[C@@H]2C1 [Licoricesaponin G2]	2	10
COc1cc2c(cc1OC)[C@@H](Cc1ccc(O)c(Oc3cc4c(cc3OC)CCN(C)[C@@H]4Cc3ccc(O)cc3)c1)N(C)CC2 [Liensinine]	34	8
Cc1nc(C)c(C)nc1C.Cl [Ligustrazine (hydrochloride)]	0	17
C[C@@H]1O[C@@H](OC[C@H]2O[C@@H](Oc3cc(O)c4c(=O)cc(-c5ccc(O)cc5)oc4c3)[C@H](O[C@@H]3O[C@@H](C)[C@H](O)[C@@H](O)[C@H]3O)[C@@H](O)[C@@H]2O)[C@H](O)[C@H](O)[C@H]1O [Ligustroflavone]	10	8
COC(=O)C1=COC(O[C@@H]2O[C@H](CO)[C@@H](O)[C@H](O)[C@H]2O)/C(=C/C(=O)O)C1CC(=O)OCCc1ccc(O)cc1 (some centres unmarked) [Ligustrosidic acid]	3	24
COc1ccc(-c2cc(=O)c3c(O)cc(O[C@@H]4O[C@H](CO[C@@H]5O[C@@H](C)[C@H](O)[C@@H](O)[C@H]5O)[C@@H](O)[C@H](O)[C@H]4O)cc3o2)cc1 [Linarin]	15	23
CCC[C@@H]1C[C@@H](C(=O)N[C@@H]([C@H]2O[C@H](SC)[C@H](O)[C@@H](O)[C@H]2O)[C@@H](C)O)N(C)C1.Cl.O [Lincomycin (hydrochloride hydrate)]	1	0
C=C1[C@H]2C[C@H]2[C@]2(C)Cc3occ(C)c3[C@H](O)[C@@H]12 [Lindenenol]	0	19
C=C1[C@H]2C[C@H]2[C@]2(C)Cc3occ(C)c3[C@H](OC(C)=O)[C@@H]12 [Linderene acetate]	8	20
O=C1C[C@@H](c2ccc(O)cc2)Oc2cc(O)ccc21 [Liquiriti genin]	44	28
COc1cc2c3c(c1O)-c1ccccc1C[C@@H]3N(C)CC2 [Lirinidine]	0	6
